# From ChEMBL document CHEMBL1126372, “Synthesis of L-chiro-inositol 1,4,6-trisphosphorothioate, a potent and selective inhibitor of myo-inositol 1,4,5-trisphosphate 5-phosphatase” (Bioorg Med Chem Lett, 1992)
# Calls of active or inactive are those of the source.
# Legend:
# [1] = Tested for the ability to inhibit dephosphorylation of [3H]Ins(1,4,5)P3 of human erythrocyte membrane Ins(1,4,5)P3 5- phosphatase; assay type: functional
# [2] = Inhibition of [3H]Ins(1,4,5)P3 phosphorylation by crude rat brain Ins(1,4,5)P3 3-kinase at 250 uM (Inactive); assay type: functional
# [3] = Effective concentration required to mobilize [Ca2+] from intracellular stores using electrically permeabilised human neuroblastoma cells; assay type: functional, cell-based
EC50 [3] [µM],SMILES,Ki [1] [µM],inhibition [2]
,OC1C(O)C(OP(O)(O)=S)C(OP(O)(O)=S)C(O)C1OP(O)(O)=S (stereo in doubt),1.7,
,O=P(O)(O)OC1C(O)C(O)C(OP(=O)(O)O)C(OP(O)(O)=S)C1O (stereo in doubt),6.8,
,OC1C(O)C(OP(O)(O)=S)C(OP(O)(O)=S)C(O)C1OP(O)(O)=S (stereo in doubt; 2),350,
,OC1C(O)C(OP(O)(O)=S)C(OP(O)(O)=S)C(O)C1OP(O)(O)=S (stereo in doubt; 8) [listing 1 of 2 here],,inactive
,O=P(O)(O)OC1C(O)C(O)C(OP(=O)(O)O)C(OP(O)(O)=S)C1O (stereo in doubt; 4),978,
,OC1C(O)C(OP(O)(O)=S)C(OP(O)(O)=S)C(O)C1OP(O)(O)=S (stereo in doubt; 8) [listing 2 of 2 here],0.3,
0.12,"O=P(O)(O)O[C@@H]1[C@H](O)[C@H](O)[C@@H](OP(=O)(O)O)[C@H](OP(=O)(O)O)[C@H]1O [INS(1,4,5)P3]",44,inactive
